Counter-ions that a name gives are not always drawn. Like-named read-outs stand apart in the source and are kept apart here.

Here are results for four molecules from EP0666253A1, “N-t-BUTYLANILINE ANALOG AND LIPID LEVEL DEPRESSANT CONTAINING THE SAME” (priority 1992, dated 1994).

Data set [1] deals with lipid level in blood. Kind of data set: Action on the lipid level in blood (rats on high cholesterol feed). The following applies: Rattus norvegicus, relative to the control, oral 25 mg/kg/day, starved 24 hours after final administration; for change in vivo at 25 mg/kg/day: high density lipoprotein-cholesterol, read-out: HDL-Ch increase rate. In kind it is in vivo, Male Wistar strain rats. The procedure:
Male Wistar strain rats with weights of about 200 g were given a high cholesterol feed containing 1 % cholesterol and 0.5 % cholic acid. Simultaneously, a suspension of a test compound in 5 % aq. gum arabic was orally administered in an amount of 25 mg/kg/day. After the final administration, the animals were starved for 24 hours and then evaluated for serum total cholesterol (TC), high density lipoprotein-cholesterol (HDL-Ch) and serum triglyceride (TG) content. The control group was orally given 5 % aq. solution of gum arabic. […] In Table 4, test compounds Nos. 1 to 11 correspond respectively to the hydrochlorides of the compounds of Examples 1 to 11.

Data set [2] has as its system hepatic parenchymal cells. Kind of data set: Action on incorporation of LDL (radioisotope-labeled LDL, primary culture). In kind it is cell-based, male Wistar strain rat. The settings on record: Rattus norvegicus; relative to the control (DMSO only); test compound 10 µg/ml, incubated 24 hours, then labeled LDL for 4 hours; read-out: incorporation ratio of LDL. The procedure: hepatic cells were separated from the liver of a male Wistar strain rat weighing about 200 g, and the hepatic parenchymal cells were incubated in primary culture. 48 hours thereafter, a solution of a test compound in dimethylsulfoxide (DMSO) (10 µg/ml) was added thereto and incubated for 24 hours. Then, a radioisotope-labeled low density lipoprotein (LDL) was added thereto, and incubation was continued for further 4 hours. The cells were washed with physiological saline and then lysed with sodium dodecyl sulfate (SDS), and their radioactivity was determined in a liquid scintillation counter. The control group was treated in the same manner as above except for the addition of DMSO only. […] In Table 5, the test compounds 1 to 11 correspond respectively to the hydrochlorides of the compounds of Examples 1 to 11.

The nature of data set [3]: in vivo. The settings on record: mouse. On the procedure: Acute toxicity was examined in the Litchfield and Wilcoxon's method where 10 ICR male mice were orally given a test compound.
The LD₅₀ of clofibrate was 1600 mg/kg.

Where [4] appears, read: serum total cholesterol, suspension in 5 % aq. gum arabic, read-out: TC decrease rate.
Setting [5] is: serum triglyceride, read-out: TG decrease rate.

As for `CCN(CC)c1ccc(Sc2ccc(C)cc2)cc1` [compound of Reference Example 4, N,N-diethyl-4-(4-tolylthio)aniline], the inhibition in vivo at 25 mg/kg/day in data set [1] (setting [4]) was -16.2%; in data set [1] (setting [5]) it was 30%.
As for `CC(C)(C)N(c1ccc(Oc2ccccc2)cc1)S(C)(=O)=O` [compound of Reference Example 3, 4-(N-t-butyl)methanesulfonylaminodiphenyl ether], in data set [1], the change in vivo at 25 mg/kg/day is -0.7%. In addition, the inhibition in vivo at 25 mg/kg/day in data set [1] (setting [4]) is 3.6%; in data set [1] (setting [5]), -2.1%. For the same molecule, the activation at 10 µg/mL in data set [2] is -15.7%.
In the case of `CC(C)(C)Nc1ccc(Sc2ccccc2)cc1` [test compound 1, 4-(t-butylamino)diphenylsulfide hydrochloride], the change in vivo at 25 mg/kg/day in data set [1] amounted to 39.4%. In addition, the inhibition in vivo at 25 mg/kg/day in data set [1] (setting [4]) was 95.7%; in data set [1] (setting [5]), 48.5%. The activation at 10 µg/mL in data set [2] was 65.3%. Moreover, the LD50 in data set [3] (oral, 10 ICR male mice, read-out: LD₅₀) is greater than 5000 mg/kg.
As for `CCOC(=O)C(C)(C)Oc1ccc(Cl)cc1` [clofibrate], in data set [1], the change in vivo at 25 mg/kg/day was -1.6%. The figures for the inhibition in vivo at 25 mg/kg/day in data set [1] (setting [4]) and in data set [1] (setting [5]) were 1.2% and -0.9%, respectively. The activation at 10 µg/mL in data set [2] is -10.5%. Besides, the LD50 in data set [3] (male, ICR, po) was 1600 mg/kg.
